Key:
Format in all cases: in vivo
Lolium multiflorum = experiment: Herbicidal pre-emergence action; settings: pre-emergence method, 320 g of a.i./ha; about 3 weeks
From the text: (§1) 1. Herbicidal Pre-Emergence Action
(§2) • Seeds of monocotyledonous and dicotyledonous weed and crop plants are placed in sandy loam in wood fibre pots and covered with soil. The test compounds, formulated in the form of wettable powders (WP), are then, as aqueous suspension with a water application rate of 600 l/ha (converted), with 0.2% of wetting agent added, applied to the surface of the covering soil in various dosages. • After the treatment, the pots are placed in a greenhouse and kept under good growth conditions for the test plants. The visual assessment of the emergence damage on the test plants is carried out after a trial period of about 3 weeks by comparison with untreated controls (herbicidal effect in %: 100% effect=the plants have died, 0% effect=like control plants). • In addition to the compounds mentioned above, the following compounds, applied by the pre-emergence method at 320 g of a.i./ha, show an efficacy of 90% against Lolium multiflorum and Setaria viridis: I-1-a-1 • In addition to the compounds mentioned above, the following compounds, applied by the pre-emergence method at 320 g of a.i./ha, show an efficacy of 100% against Echinocloa crus-galli: I-a-2, I-b-1, I-b-2, I-c-2 2. Herbicidal Post-Emergence Action • Seeds of monocotyledonous and dicotyledonous weed and crop plants are placed in sandy loam in wood fibre pots, covered with soil and cultivated in a greenhouse under good growth conditions. 2-3 weeks after sowing, the test plants are treated at the one-leaf stage. The test compounds, formulated as wettable powders (WP), are, in various dosages at a water application rate of 600 l/ha (converted), with 0.2% of wetting agent added, sprayed onto the green parts of the plants. After the test plants have been kept in the greenhouse under optimum growth conditions for about 3 weeks, the effect of the preparations is rated visually in comparison to untreated controls (herbicidal effect in %: 100% effect=the plants have died, 0% effect=like control plants). • In addition to the compounds mentioned above, the following compounds, applied by the post-emergence method at 80 g/ha, show an efficacy of 90% against Echinocloa crus-galli and Lolium multiflorum: I-a-3, I-a-4, I-a-5.

Setaria viridis = experiment: Herbicidal pre-emergence action; settings: pre-emergence method, 320 g of a.i./ha; about 3 weeks
From the text: as §1, §2

Lucilia cuprina larva = experiment: Lucilia cuprina test (LUCICU); settings: application rate 100 ppm; treated horse meat; after 2 days
Method: Lucilia cuprina Test (LUCICU)
Solvent: Dimethyl sulphoxide
To produce a suitable preparation of active compound, 10 mg of active compound are mixed with 0.5 ml of dimethyl sulphoxide and the concentrate is diluted with water to the desired concentration. Containers containing horse meat treated with the active compound preparation of the desired concentration are populated with about 20 Lucilia cuprina larva.
After 2 days, the kill in % is determined. 100% means that all larva have been killed; 0% means that none of the larva have been killed.

[1] = system: green peach aphid (Myzus persicae); experiment: Myzus persicae test, activity boost by ammonium salts in combination with penetrants; settings: bell pepper plants; for Kill rate after 6 days: no additive
Method: Example 9: Activity Boost by Ammonium Salts in Combination with Penetrants
Solvent: 7 parts by weight of dimethylformamide
Emulsifier: 2 parts by weight of alkylaryl polyglycol ether
To produce a suitable preparation of active compound, 1 part by weight of active compound is mixed with the stated amounts of solvent and emulsifier, and the concentrate is diluted with water to the desired concentration. For application with ammonium salts and penetrants (rapeseed oil methyl ester 500 EW) these are in each case added in a concentration of 1000 ppm of a.i. to the spray liquor.
Bell pepper plants (Capsicum annuum) heavily infested by the green peach aphid (Myzus persicae) are sprayed to runoff point with the preparation of active compound at the desired concentration. After the desired period of time, the kill in % is determined. 100% means that all animals have been killed; 0% means that none of the animals have been killed.

Echinocloa crus-galli = experiment: Herbicidal pre-emergence action; settings: pre-emergence method, 320 g of a.i./ha; about 3 weeks
From the text: as §1, §2

[2] = system: greenhouse red spidermite (Tetranychus urticae); experiment: Tetranychus test OP-resistant (TETRUR spray treatment); settings: application rate 100 g/ha, bean leaf discs, after 6 days
Method: Tetranychus Test OP-Resistant (TETRUR Spray Treatment)
Solvents: 78.0 parts by weight of acetone
• 1.5 parts by weight of dimethylformamide Emulsifier: 0.5 part by weight of alkylaryl polyglycol ether
To produce a suitable preparation of active compound, 1 part by weight of active compound is mixed with the stated amounts of solvents and emulsifier, and the concentrate is diluted with emulsifier-containing water to the desired concentration. Discs of bean leaves (Phaseolus vulgaris) which are infested by all stages of the greenhouse red spidermite (Tetranychus urticae) are sprayed with an active compound preparation of the desired concentration.
After 6 days, the effect in % is determined. 100% means that all spidermites have been killed; 0% means that none of the spidermites have been killed.

Row | SMILES | efficacy (herbicidal effect in %) (Lolium multiflorum) [%] | efficacy (herbicidal effect in %) (Setaria viridis) [%] | efficacy (kill in %) (Lucilia cuprina larva) [%] | Kill rate after 6 days, +AS (1000 ppm) ([1]; 4 ppm) [%] | Kill rate after 6 days, +RME (1000 ppm) ([1]; 4 ppm) [%] | Kill rate after 6 days, +RME + AS (1000 ppm each) ([1]; 4 ppm) [%] | Kill rate after 6 days ([1]; 4 ppm) [%] | Kill rate after 6 days, +AS (1000 ppm) ([1]; 20 ppm) [%] | Kill rate after 6 days, +RME (1000 ppm) ([1]; 20 ppm) [%] | Kill rate after 6 days, +RME + AS (1000 ppm each) ([1]; 20 ppm) [%] | Kill rate after 6 days ([1]; 20 ppm) [%] | efficacy (herbicidal effect in %) (Echinocloa crus-galli) [%] | efficacy (effect in %, spidermites killed) [2] [%] | Kill rate after 6 days, +AS (1000 ppm) ([1]; 0.8 ppm) [%] | Kill rate after 6 days, +RME (1000 ppm) ([1]; 0.8 ppm) [%] | Kill rate after 6 days, +RME + AS (1000 ppm each) ([1]; 0.8 ppm) [%] | Kill rate after 6 days ([1]; 0.8 ppm) [%]
1 | CON1CCC2(CC1)NC(=O)C(c1c(C)ccc(-c3ccc(F)cc3)c1C)=C2O [I-a-1] | 90 | 90 | 90 | 30 | 55 | 100 | 0 | 90 | 95 | 100 | 60 |  |  |  |  |  | 
2 | CCON1CCC2(CC1)NC(=O)C(c1c(C)ccc(-c3ccc(F)cc3)c1C)=C2O [I-a-2] |  |  | 90 | 20 | 95 | 95 | 0 |  |  |  |  | 100 | 100 | 0 | 0 | 40 | 0

Source: patent publication US9809542B2, “Spiroheterocyclically substituted tetramic acid derivatives” (BAYER INTELLECTUAL PROPERTY GMBH, priority 2010, dated 2017)
